The nature of series [1]: Drug concentration at steady state in human at 400 to 1200 mg, po TID after 8 hrs. Format: ADME, organism-based. The settings on record: in vivo, read-out: Css.
For series [2], the target named is ATP-binding cassette sub-family C member 3 (Homo sapiens, UniProt O15438). The experiment in a line: Inhibition of human MRP3 overexpressed in Sf9 insect cell membrane vesicles assessed as uptake of [3H]-estradiol-17beta-D-glucuronide in presence of ATP and GSH measured after 10 mins by membrane vesicle transport assay. The format is ADME, cell-based.
The target in series [3] is T1, ATP-binding cassette sub-family C member 4 (Homo sapiens, UniProt O15439).
T1 sequence (O15439 whole entry): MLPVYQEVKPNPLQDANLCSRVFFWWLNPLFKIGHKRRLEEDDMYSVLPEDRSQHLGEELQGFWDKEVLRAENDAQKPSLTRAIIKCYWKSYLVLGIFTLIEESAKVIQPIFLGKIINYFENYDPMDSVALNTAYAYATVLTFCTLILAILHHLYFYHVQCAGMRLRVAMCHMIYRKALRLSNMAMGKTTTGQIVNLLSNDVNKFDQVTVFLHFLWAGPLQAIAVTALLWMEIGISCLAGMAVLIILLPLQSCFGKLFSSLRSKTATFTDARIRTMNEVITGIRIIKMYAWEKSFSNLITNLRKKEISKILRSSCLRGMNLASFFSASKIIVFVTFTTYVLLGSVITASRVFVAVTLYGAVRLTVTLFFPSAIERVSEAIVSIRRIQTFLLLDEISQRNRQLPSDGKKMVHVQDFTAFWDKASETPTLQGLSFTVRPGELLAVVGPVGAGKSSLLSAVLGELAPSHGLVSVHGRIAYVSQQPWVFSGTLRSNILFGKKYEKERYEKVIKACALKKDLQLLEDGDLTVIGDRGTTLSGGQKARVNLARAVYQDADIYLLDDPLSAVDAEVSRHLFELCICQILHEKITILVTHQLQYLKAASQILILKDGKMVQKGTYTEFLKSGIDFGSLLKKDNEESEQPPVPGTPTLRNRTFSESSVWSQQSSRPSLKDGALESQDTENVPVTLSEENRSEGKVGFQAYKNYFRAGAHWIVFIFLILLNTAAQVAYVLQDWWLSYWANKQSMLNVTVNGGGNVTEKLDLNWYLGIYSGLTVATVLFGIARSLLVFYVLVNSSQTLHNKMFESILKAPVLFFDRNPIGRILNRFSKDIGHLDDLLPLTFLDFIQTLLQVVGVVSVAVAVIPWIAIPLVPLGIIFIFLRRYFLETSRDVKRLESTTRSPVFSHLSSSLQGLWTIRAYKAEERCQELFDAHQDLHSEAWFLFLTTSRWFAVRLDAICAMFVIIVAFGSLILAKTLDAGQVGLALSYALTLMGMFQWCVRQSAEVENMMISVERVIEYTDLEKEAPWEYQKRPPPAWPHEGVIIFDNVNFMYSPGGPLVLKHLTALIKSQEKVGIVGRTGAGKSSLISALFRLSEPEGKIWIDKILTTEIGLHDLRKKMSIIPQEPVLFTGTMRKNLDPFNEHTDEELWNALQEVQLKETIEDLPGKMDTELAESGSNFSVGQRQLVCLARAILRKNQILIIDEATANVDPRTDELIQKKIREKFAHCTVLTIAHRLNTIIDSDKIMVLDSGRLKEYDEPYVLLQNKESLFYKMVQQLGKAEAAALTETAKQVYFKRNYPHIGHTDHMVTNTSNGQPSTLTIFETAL
The experiment in a line: Inhibition of human MRP4 overexpressed in Sf9 cell membrane vesicles assessed as uptake of [3H]-estradiol-17beta-D-glucuronide in presence of ATP and GSH measured after 20 mins by membrane vesicle transport assay. Format: ADME, cell-based.

Series [4] can be described thus: AUC in human at 400 to 1200 mg, po TID after 8 hrs. Format: ADME, organism-based. The settings on record: in vivo.
The target of series [5] is ATP-binding cassette sub-family C member 2 (Homo sapiens, UniProt Q92887). As to the kind of experiment: Inhibition of human MRP2 overexpressed in Sf9 cell membrane vesicles assessed as uptake of [3H]-estradiol-17beta-D-glucuronide in presence of ATP and GSH measured after 20 mins by membrane vesicle transport assay.
The nature of series [6]: Ratio of drug concentration at steady state in human at 80 to 600 mg, po QD after 24 hrs to IC50 for human MRP4 overexpressed in Sf9 insect cells. Format: ADME, organism-based. The settings on record: in vivo.
The nature of series [7]: AUC in human at 80 to 600 mg, po QD after 24 hrs. Format: ADME, organism-based. The settings on record: in vivo.
Series [8] in a line: Ratio of drug concentration at steady state in human at 80 to 600 mg, po QD after 24 hrs to IC50 for human BSEP overexpressed in Sf9 insect cells. Format: ADME, organism-based. The settings on record: in vivo.
A short description of series [9]: Drug concentration at steady state in human at 80 to 600 mg, po QD after 24 hrs. The format is ADME, organism-based. The settings on record: in vivo, read-out: Css.
The target of a further series is Bile salt export pump (Homo sapiens, UniProt O95342). As to the kind of experiment: Inhibition of human BSEP overexpressed in Sf9 cell membrane vesicles assessed as uptake of [3H]-taurocholate in presence of ATP measured after 15 to 20 mins by membrane vesicle transport assay. Format: ADME, cell-based.
Series [10] is described as follows: Drug concentration at steady state in human at 800 mg, po TID after 8 hrs. Format: ADME, organism-based. The settings on record: in vivo, read-out: Css.
Series [11] is described as follows: Ratio of drug concentration at steady state in human at 800 mg, po TID after 8 hrs to IC50 for human BSEP overexpressed in Sf9 insect cells. The format is ADME, organism-based. The settings on record: in vivo.
Series [12] in a line: Ratio of drug concentration at steady state in human at 800 mg, po TID after 8 hrs to IC50 for human MRP3 overexpressed in Sf9 insect cells. The format is ADME, organism-based. The settings on record: in vivo.
A short description of series [13]: AUC in human at 800 mg, po TID after 8 hrs. More on the design: dose 800 mg, time < 8 hr, route oral. Format: ADME, organism-based. The settings on record: in vivo.
Series [14] in a line: Ratio of drug concentration at steady state in human at 75 to 100 mg, po QID after 6 hrs to IC50 for human MRP4 overexpressed in Sf9 insect cells. Format: ADME, organism-based. The settings on record: in vivo.
A short description of series [15]: AUC in human at 75 to 100 mg, po QID after 6 hrs. The format is ADME, organism-based. The settings on record: in vivo.
A short description of series [16]: Ratio of drug concentration at steady state in human at 75 to 100 mg, po QID after 6 hrs to IC50 for human BSEP overexpressed in Sf9 insect cells. The settings on record: in vivo. Format: ADME, organism-based.
Series [17] is described as follows: Drug concentration at steady state in human at 75 to 100 mg, po QID after 6 hrs. Format: ADME, organism-based. The settings on record: in vivo, read-out: Css.

Where only a bound is given, the exact number is not on record here.

These results are taken from ChEMBL document CHEMBL4028801, “A multifactorial approach to hepatobiliary transporter assessment enables improved therapeutic compound development” (Toxicol Sci, 2013).

Sequence of ATP-binding cassette sub-family C member 3 (O15438 whole entry): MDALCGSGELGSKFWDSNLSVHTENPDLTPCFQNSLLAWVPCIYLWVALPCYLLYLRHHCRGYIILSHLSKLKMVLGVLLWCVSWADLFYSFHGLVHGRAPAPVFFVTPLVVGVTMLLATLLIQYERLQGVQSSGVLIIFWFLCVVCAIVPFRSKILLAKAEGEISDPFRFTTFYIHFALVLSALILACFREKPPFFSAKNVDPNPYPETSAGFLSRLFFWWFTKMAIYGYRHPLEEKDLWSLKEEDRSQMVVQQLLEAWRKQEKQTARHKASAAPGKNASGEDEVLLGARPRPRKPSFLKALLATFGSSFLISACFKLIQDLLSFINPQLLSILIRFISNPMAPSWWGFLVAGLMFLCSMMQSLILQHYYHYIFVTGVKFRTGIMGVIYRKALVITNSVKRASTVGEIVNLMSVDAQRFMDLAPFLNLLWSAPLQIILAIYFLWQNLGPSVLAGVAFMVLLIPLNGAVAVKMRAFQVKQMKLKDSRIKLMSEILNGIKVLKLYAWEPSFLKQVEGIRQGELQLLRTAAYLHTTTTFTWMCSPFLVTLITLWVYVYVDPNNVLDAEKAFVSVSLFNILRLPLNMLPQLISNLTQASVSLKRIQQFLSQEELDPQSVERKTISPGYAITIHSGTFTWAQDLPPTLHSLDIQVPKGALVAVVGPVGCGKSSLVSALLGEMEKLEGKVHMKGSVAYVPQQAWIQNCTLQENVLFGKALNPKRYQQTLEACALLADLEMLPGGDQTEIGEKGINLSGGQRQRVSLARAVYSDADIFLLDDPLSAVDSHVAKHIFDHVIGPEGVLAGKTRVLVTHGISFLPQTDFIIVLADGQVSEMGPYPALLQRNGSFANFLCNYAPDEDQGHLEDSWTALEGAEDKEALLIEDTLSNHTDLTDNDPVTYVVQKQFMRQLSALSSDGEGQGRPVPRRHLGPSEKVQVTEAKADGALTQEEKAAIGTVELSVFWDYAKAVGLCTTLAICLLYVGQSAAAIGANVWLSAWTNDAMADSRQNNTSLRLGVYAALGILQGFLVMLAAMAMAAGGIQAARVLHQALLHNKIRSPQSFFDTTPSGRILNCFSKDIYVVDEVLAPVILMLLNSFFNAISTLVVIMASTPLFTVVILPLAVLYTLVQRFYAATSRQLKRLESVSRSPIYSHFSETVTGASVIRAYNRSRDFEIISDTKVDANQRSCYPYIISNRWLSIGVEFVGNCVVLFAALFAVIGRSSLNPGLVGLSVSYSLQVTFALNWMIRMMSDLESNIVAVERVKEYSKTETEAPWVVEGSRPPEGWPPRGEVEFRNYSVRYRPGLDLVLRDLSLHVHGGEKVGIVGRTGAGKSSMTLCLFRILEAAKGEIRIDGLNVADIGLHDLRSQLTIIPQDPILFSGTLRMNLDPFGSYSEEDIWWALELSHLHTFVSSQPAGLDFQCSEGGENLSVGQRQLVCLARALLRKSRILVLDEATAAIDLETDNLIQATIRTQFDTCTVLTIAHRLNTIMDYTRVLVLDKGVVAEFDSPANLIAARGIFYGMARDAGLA
Sequence of ATP-binding cassette sub-family C member 2 (Q92887 whole entry): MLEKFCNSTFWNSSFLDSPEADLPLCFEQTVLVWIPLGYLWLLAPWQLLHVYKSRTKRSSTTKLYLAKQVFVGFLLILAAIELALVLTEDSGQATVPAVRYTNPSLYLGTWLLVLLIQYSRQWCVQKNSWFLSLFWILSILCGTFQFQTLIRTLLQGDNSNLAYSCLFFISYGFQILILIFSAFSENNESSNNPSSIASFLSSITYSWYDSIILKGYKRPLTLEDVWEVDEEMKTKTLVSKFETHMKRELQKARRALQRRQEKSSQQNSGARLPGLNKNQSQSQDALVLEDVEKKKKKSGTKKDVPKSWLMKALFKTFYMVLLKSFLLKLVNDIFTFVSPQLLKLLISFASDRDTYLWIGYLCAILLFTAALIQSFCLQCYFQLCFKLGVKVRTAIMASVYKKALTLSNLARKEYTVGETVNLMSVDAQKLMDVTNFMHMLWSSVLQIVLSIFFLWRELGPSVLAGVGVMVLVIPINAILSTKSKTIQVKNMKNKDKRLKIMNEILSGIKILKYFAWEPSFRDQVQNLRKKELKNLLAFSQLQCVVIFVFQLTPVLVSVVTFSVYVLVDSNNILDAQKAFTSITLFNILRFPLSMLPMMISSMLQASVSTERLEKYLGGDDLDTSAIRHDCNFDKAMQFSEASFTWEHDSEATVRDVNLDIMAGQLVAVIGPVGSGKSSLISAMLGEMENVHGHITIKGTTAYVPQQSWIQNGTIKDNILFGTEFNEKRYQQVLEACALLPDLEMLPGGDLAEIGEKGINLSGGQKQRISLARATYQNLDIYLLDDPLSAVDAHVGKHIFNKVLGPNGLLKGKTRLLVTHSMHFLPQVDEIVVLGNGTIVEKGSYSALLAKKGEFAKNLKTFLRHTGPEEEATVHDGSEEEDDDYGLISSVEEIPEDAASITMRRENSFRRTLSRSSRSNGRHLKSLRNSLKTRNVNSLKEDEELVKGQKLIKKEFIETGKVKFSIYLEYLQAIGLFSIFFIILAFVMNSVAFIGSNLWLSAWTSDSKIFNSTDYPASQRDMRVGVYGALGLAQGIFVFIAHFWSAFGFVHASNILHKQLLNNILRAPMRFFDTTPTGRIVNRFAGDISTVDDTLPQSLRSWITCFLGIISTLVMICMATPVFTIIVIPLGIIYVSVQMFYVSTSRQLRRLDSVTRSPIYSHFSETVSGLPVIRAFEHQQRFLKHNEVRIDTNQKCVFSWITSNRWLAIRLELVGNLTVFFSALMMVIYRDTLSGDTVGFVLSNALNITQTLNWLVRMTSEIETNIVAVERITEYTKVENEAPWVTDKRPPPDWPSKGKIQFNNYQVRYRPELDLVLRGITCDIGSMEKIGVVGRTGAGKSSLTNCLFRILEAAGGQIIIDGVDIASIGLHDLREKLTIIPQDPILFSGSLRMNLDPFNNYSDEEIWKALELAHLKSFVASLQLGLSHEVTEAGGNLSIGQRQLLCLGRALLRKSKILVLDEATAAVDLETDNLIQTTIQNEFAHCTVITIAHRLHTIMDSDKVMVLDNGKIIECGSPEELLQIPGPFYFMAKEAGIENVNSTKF
Sequence of Bile salt export pump (O95342 whole entry): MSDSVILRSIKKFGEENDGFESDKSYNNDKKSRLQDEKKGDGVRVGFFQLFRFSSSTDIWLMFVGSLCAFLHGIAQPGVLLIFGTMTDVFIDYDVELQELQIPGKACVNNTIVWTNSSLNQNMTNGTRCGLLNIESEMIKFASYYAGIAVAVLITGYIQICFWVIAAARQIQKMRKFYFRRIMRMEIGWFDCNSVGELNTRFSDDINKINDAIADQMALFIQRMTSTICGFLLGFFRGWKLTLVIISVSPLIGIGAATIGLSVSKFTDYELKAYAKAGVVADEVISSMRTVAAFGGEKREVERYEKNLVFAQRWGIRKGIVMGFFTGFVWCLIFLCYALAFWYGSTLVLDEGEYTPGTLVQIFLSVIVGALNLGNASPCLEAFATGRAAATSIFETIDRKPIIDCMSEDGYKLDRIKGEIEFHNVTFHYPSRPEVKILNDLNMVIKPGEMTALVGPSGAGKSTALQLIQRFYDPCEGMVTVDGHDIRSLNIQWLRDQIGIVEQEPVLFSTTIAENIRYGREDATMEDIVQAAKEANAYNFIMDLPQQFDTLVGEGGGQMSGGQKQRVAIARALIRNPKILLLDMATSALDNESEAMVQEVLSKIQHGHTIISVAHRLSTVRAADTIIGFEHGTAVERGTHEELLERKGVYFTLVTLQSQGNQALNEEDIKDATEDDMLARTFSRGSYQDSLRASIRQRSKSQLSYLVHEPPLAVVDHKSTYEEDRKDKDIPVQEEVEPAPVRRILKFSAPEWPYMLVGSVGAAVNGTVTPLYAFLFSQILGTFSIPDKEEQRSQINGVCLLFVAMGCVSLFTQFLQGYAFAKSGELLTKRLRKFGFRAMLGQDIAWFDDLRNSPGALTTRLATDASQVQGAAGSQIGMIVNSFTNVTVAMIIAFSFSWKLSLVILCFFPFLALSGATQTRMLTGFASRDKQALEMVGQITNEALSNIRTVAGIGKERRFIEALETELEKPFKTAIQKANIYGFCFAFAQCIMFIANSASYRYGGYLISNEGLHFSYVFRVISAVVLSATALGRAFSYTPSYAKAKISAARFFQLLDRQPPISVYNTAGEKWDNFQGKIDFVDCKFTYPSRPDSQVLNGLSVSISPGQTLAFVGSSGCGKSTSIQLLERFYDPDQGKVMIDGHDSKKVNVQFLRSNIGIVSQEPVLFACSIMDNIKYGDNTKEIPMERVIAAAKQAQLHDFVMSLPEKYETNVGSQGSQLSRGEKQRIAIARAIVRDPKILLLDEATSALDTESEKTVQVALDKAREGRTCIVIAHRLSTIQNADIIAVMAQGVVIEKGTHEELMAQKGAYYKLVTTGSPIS

For `CC(C)(C)NC(=O)[C@@H]1C[C@@H]2CCCC[C@@H]2CN1C[C@@H](O)[C@H](Cc1ccccc1)NC(=O)[C@H](CC(N)=O)NC(=O)c1ccc2ccccc2n1`, the concentration at 8 h in series [1] turned out to be 1.21 µM. Moreover, the concentration for half-maximal inhibition (IC50) is 42 µM in series [2], 59 µM in series [3] and > 133 µM in series [5]. The AUC at 8 h in [4] amounted to 9.69 µM·h.
With `COc1ccc(/C=C/C(=O)Nc2ccccc2C(=O)O)cc1OC`, the values for the Ratio in series [6] and in series [8] were 11.849 and 0.286, respectively. In series [7], this compound yielded an AUC at 24 h of 284 µM·h. For the same compound, in [9], the concentration at 24 h came out at 11.8 µM. Further, the IC50 was > 133 µM in series [2], 1 µM in [3], 41.5 µM at Bile salt export pump and > 133 µM in series [5].
As for `CC(C)(C)NC(=O)[C@@H]1CN(Cc2cccnc2)CCN1C[C@@H](O)C[C@@H](Cc1ccccc1)C(=O)N[C@H]1c2ccccc2C[C@H]1O.O`, in series [10], the concentration at 8 h was determined as 5.64 µM. The Ratio stood at 0.266 in [11] and 0.068 in [12]. The values for the IC50 in series [2], in series [3] and in series [5] were 83 µM, > 133 µM and > 133 µM, respectively. The compound also yielded an AUC at 8 h in series [13] of 45.1 µM·h.
With `OCCN(CCO)c1nc(N2CCCCC2)c2nc(N(CCO)CCO)nc(N3CCCCC3)c2n1` [DIPYRIDAMOLE], the values for the Ratio in series [14] and in series [16] were 0.137 and 0.303, respectively. The AUC at 6 h in series [15] stood at 6.82 µM·h. Further, the IC50 in [2] was > 133 µM; in [3], 8.3 µM; at Bile salt export pump, 4 µM; in [5] it was > 133 µM. In series [17], the concentration at 6 h was 1.14 µM.

A word on the IC50: it is the concentration that inhibits the measured activity by half. The AUC is concentration integrated over time. A higher AUC goes with more exposure.
